Legend:
[1] = test system: NGF; test: human NGF ELISA of culture supernatants of osteocyte-like cultures; format: cell-based; details: KOA or NOF osteocyte-like cultures, PPS 1, 5 or 50 μg/mL for 72 h vs untreated
Excerpt: In order to maximise the clinical relevance of the findings from this study, the effects of PPS were to be tested on osteocyte-like cultures derived by differentiation in vitro for a period of 28 days from cells isolated from the subchondral bone of the proximal tibia of three patients with advanced knee OA who underwent total knee arthroplasty (TKA) surgery (KOA: Group 1). As a comparator group, cells isolated from the proximal femur of three patients who underwent total hip arthroplasty (THA) for neck of femur fracture (NOF: Group 2), were similarly differentiated and tested. The gender of all donors was female, and group were age matched, with the mean age of KOA being 77.0±8.5 years and that of the NOF group being 77.7±5.5 years (p=0.91).
Cryopreserved cells from each donor (all at passage 0 or 1) were thawed and cultured for 10d in T75 cm^2 tissue culture flasks. Once confluent, cells were removed by collagenase/dispase digestion, washed by centrifugation, counted and adjusted to 5×10^5 cells/mL. Cells were then seeded into either 12-well tissue culture trays or into 8-well chamber slides, at 1×10^5 and 2×10^4 cells/well, respectively. […]

[2] = test system: NGF mRNA; test: real-time RT-PCR for NGF mRNA in osteocyte-like cultures; format: cell-based, human
Experimental: (§1) FIG. 23. Effects of combinations of rhTNF and PPS on NGF gene expression in osteocyte-like cultures. Human differentiated osteocyte-like cultures were either untreated or pretreated with PPS (0.1 or 1.0 μg/mL) for 24 h, then with or without rhTNFα (1 ng/mL) for a further 48 h, and then real-time RT-PCR was performed for NGF mRNA. Data are mean+SD of triplicate real-time RT-PCR reactions normalised to the mRNA expression of the housekeeping gene ACTB.
as §1, with “28.” for “23.”
(§2) Cryopreserved cells from each donor (all at passage 0 or 1) were thawed and cultured for 10d in T75 cm^2 tissue culture flasks. Once confluent, cells were removed by collagenase/dispase digestion, washed by centrifugation, counted and adjusted to 5×10^5 cells/mL. Cells were then seeded into either 12-well tissue culture trays or into 8-well chamber slides, at 1×10^5 and 2×10^4 cells/well, respectively. After 24 h, media were replaced with osteogenic differentiation medium, consisting of αMEM, 5% v/v foetal calf serum (FCS), 1.8 mM potassium dihydrogen phosphate (KH2PO4), 100 μM Ascorbate-2-phosphate (As2P), 10 mM HEPES, 10^−8 M Dexamethasone and 0.2 mM L-Glutamine. During the differentiation process, samples were collected at days 3, 14 and 28 in Trizol reagent for total RNA preparation and gene expression analysis (see below). Cultures seeded into chamber slides were examined for in vitro mineralisation using the Alizarin Red staining technique, as previously described.
PPS was manufactured by bene pharmaChem GmbH & Co. KG, Geretstried, Germany. This was dissolved in sterile PBS as a stock solution at 1.0 mg/mL. Differentiated cells were either untreated or pre-treated with final concentrations of PPS at 1, 5 or 50 μg/mL in culture medium for 72 h. The tested doses of PPS were based on the effective and maximally active levels published in a previous study. Media were then replaced with the same concentrations of PPS with or without the addition of recombinant human (rh) TNFα (1 ng/mL) and then cultured for a further 48 h. Culture supernatants were collected and total RNA and cDNA prepared, as described below. This generated 8 conditions (Untreated, TNF, PPS1, PPS5, PPS50, TNF+PPS1, TNF+PPS5, TNF+PPS50) from 6 donors.
Total RNA was prepared from Trizol lysates, according to the manufacturer's instructions, with the exception that due to evidence for PPS interference in the generation of assayable cDNA, RNA precipitates were washed 3 times in 75% ethanol instead of the usual single wash step, in an attempt to remove residual PPS. RNA preparations were tested for yield and purity using a Nanodrop microvolume spectrophotometer (Thermo Fisher). One microgram of RNA from each sample was reverse transcribed using a Superscript™ II kit (Thermo Fisher), as per manufacturer's instructions. Real-time RT-PCR was performed for genes including Nerve Growth Factor (NGF), its receptors NTRK1 (TRKA) and NGFR (P75NTR), MMP13, Cyclooxygenase-2 (COX-2), Interleukin-6 (IL-6) RANKL, OPG, OCN, DMP1 and SOST, relative to housekeeping gene (18S, ACTB) expression. […]

[3] = test system: COX2 mRNA; test: real-time RT-PCR for COX2 mRNA in KOA osteocyte-like cultures; format: cell-based, human
Experimental: as §2, with “Cultures seeded into chamber slides were examined for in vitro mineralisation using the Alizarin Red staining technique, as previously described.” left out
Following three days of pre-treatment of osteocyte-like cultures with PPS and a further 48 h treatment period, total RNA was isolated for the purposes of analysing gene expression using real-time RT-PCR. While the quality of the RNA isolated from all cultures appeared to be high, as adjudged by Nanodrop micro-spectrophotometry showing the ratio of absorbance at 260 nm/280 nm generally being between 1.9 and 2.0, there was a consistent inability to generate complementary DNA (cDNA) from any samples exposed to 5 or 50 μg/mL PPS, except in one or two samples. […]

For Sodium Pentosan Polysulfate [PPS], the “secreted levels of mature NGF protein (ELISA)” value [1] was “increased”, the “NGF mRNA levels, PPS in combination with rhTNFα” value ([2]; KOA1 and KOA2 cultures, PPS 1 μg/mL + rhTNFα 1 ng/mL, 48 h, relative to 18S rRNA (FIG. 16)) was “strongly suppressed” and the “NGF mRNA levels, PPS alone” value ([2]; KOA1 and KOA2 cultures, PPS 1 μg/mL, 72 h pre-treatment + 48 h, relative to 18S rRNA (FIG. 16)) was “strongly suppressed”. The “NGF expression (mRNA) in the presence of TNFα” value ([2]; PPS at 1 μg/mL, 24 h pre-treatment, rhTNFα 1 ng/mL 48 h, normalised to ACTB (FIG. 23)) was “significantly reduced”, the “NGF expression (mRNA) in the presence of TNFα” value ([2]; PPS at 1 mg/mL (so in the source), FIG. 28, normalised to ACTB) was “significantly reduced” and the “basal NGF mRNA levels” value ([2]; PPS at both 0.1 and 1 μg/mL, 24 h pre-treatment + 48 h, normalised to ACTB (FIG. 23)) was “no apparent effect”. For the same substance, the “COX2 mRNA expression, PPS alone” value ([3]; PPS 1 μg/mL (FIG. 18)) was “completely inhibited” and the “COX2 mRNA expression, PPS in combination with rhTNFα” value ([3]; PPS 1 μg/mL + rhTNFα 1 ng/mL (FIG. 18)) was “completely inhibited”.
